In patent US5292884A, “Cyclic hydroxamic acids” (Biomide Investment Limited Partnership, priority 1992, dated 1994) one finds IC50 data, which are given here for 18 compounds.

The term IC50 denotes the concentration that inhibits the measured activity by half.

In this assay the target is T1, 12-lipoxygenase (Sus scrofa, UniProt P16469).
T1 construct: porcine Leukocyte cytosol in buffer; from tissue; host or cells: porcine leukocyte cytosol
T1 sequence (P16469 1-663): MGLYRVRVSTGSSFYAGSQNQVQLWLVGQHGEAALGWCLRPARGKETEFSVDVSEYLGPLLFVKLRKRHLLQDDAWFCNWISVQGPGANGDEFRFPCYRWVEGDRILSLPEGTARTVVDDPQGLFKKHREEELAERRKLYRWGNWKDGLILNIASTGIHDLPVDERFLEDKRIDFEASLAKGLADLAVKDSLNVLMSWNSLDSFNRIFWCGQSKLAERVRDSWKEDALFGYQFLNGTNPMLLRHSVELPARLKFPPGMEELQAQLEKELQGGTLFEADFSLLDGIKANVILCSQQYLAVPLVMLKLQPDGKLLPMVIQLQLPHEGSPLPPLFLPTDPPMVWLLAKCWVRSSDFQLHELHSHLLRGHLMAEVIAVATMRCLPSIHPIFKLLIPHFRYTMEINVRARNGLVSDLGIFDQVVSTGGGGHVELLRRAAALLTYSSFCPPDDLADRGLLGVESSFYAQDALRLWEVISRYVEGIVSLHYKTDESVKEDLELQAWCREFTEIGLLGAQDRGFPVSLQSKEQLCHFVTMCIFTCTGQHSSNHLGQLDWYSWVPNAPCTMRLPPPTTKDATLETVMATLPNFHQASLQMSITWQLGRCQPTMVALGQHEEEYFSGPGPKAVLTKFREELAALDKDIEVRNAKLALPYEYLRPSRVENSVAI
The experiment in a line: 12-lipoxygenase inhibition in porcine leukocyte cytosol ([1-14C] arachidonic acid conversion to 12-HETE, TLC). In kind it is biochemical. Conditions: porcine leukocyte cytosol 0.075 mg/mL, pH 8.0, 5 min preincubation, 5 μM arachidonic acid, 15 min at 37° C. Here is the method: The standard assay procedure is as follows:
Compounds of the present invention were added in 3 μL of DMSO at an appropriate concentration to porcine Leukocyte cytosol in buffer (final protein concentration of 0.075 mg/mL in 0.1M HEPES, 2 mM caCl2, 1 mM MgCl2, pH=8.0) and preincubated for 5 min at 37° C. [1-^14 C] arachidonic acid was added (final concentration of 5 μM) and the reactions were incubated for 15 min at 37° C. and terminated by the addition of HCl. Total reaction volume was 100 μL. Assays also included reduced glutathione in the assay at 25 μM or following the assay at 1 mM and/or cold carrier 12-HETE and arachidonic acid added at the end of the incubation at concentrations of 5 and 100 μM, respectively. Sample was extracted with water-saturated ethyl acetate and the extracts were spotted onto TLC plates. The plates were developed with dichloromethane/ethyl acetate/acetic acid in a ratio of 70:30:1. Under these conditions, the Rf's of 12-HETE and arachidonic acid are 0.30 and 0.45 , respectively. The percentage conversion to 12-HETE was calculated from the percentage of the total ^14 C on the TLC plate that coelutes with a standard of 12-HETE.
The compound `CCCCCCCCCCCCCC[C@@H]1C[C@H](Cc2ccccc2)CC(=O)N1O` (relative stereo) [1(nn), cis-4-Benzyl-1-hydroxy-6-tetradecyl-piperidin-2-one] registered an IC50 of 400 nM. That is a sub-micromolar value. For `CCCCCCCC[C@@H]1C[C@H](c2ccccc2)CC(=O)N1O` (relative stereo) [Compound 1, cis-1-hydroxy-6-octyl-4-phenylpiperidin-2-one], inhibition was half-maximal at 420 nM (IC50). For `CCCCCCCCCCCC[C@@H]1C[C@H](Cc2ccccc2)CC(=O)N1O` (relative stereo) [1(ll), cis-4-Benzyl-6-dodecyl-1-hydroxy-piperidin-2-one], the IC50 worked out at 800 nM. The value for `O=C1C(CCCc2ccccc2)CC(c2ccccc2)CN1O` (stereo not drawn) [1(aaa), 1-Hydroxy-5-phenyl-3-(3-phenylpropyl)-piperidin-2-one] was 750 nM; that for `O=C1[C@@H](CCCc2ccccc2)[C@@H](c2ccccc2)CCN1O` (relative stereo) [1(t), cis-1-hydroxy-4-phenyl-3-(3-phenylpropyl)-piperidin-2-one] was 900 nM; that for `CCCCCCCCC[C@@H]1CC(=O)N(O)C[C@@H]1c1ccccc1` (relative stereo) [1(ss), cis-1-Hydroxy-4-nonyl-5-phenyl-piperidin-2-one] was 400 nM. `O=C1C(Cc2cccc3ccccc23)C(c2ccccc2)CCN1O` (stereo not drawn) [1(ee), 1-Hydroxy-3-(1-naphthyl-methyl)-4-phenyl-piperidin-2-one] came in with an IC50 of 1000 nM.

The compound `O=C1CCC(CCCc2ccccc2)C(CCCc2ccccc2)N1O` (stereo not drawn) [1(fff), 1-Hydroxy-5,6-bis(3-phenyl-propyl)-piperidin-2-one] yielded an IC50 of 250 nM. On to `CCCCCCCC[C@H]1C[C@H](c2ccccc2)CC(=O)N1O` (relative stereo) [1(a), trans-1-hydroxy-6-octyl-4-phenylpiperidin-2-one], for which the IC50 was 150 nM.

As to `CCCCCCCCCCCCCC[C@@H]1[C@H](c2ccccc2)CCC(=O)N1O` (relative stereo) [1(cc), cis-1-Hydroxy-5-phenyl-6-tetradecyl-piperidin-2-one], it took 740 nM to reach half-maximal inhibition (IC50). In the case of `CCCCCCCCCCCC[C@@H]1[C@H](c2ccccc2)CCC(=O)N1O` (relative stereo) [1(aa), cis-6-Dodecyl-1-hydroxy-5-phenyl-piperidin-2-one], 800 nM corresponded to half-maximal inhibition (IC50). The value for `CCCCCCCCCC[C@@H]1C[C@H](c2ccccc2)CC(=O)N1O` (relative stereo) [1(b), cis-1-hydroxy-6-decyl-4-phenyl-piperidin-2-one] was 600 nM. The value for `O=C1C[C@@H](c2ccccc2)C[C@H](CCCCCCCc2ccccc2)N1O` (relative stereo) [1(m), trans-1-hydroxy-4-phenyl-6-(7-phenylheptyl)-piperidin-2-one] was 200 nM; that for `CCCCCCCCCCCC[C@H]1C[C@H](c2ccccc2)CC(=O)N1O` (relative stereo) [1(e), trans-1-hydroxy-6-dodecyl-4-phenylpiperidin-2-one] was 500 nM; that for `CCCCCCCCCCCC[C@H]1C[C@H](Cc2ccccc2)CC(=O)N1O` (relative stereo) [1(mm), trans-4-Benzyl-6-dodecyl-1-hydroxy-piperidin-2-one] was 800 nM. On to `CCCCCCCCCCCCCCCCCC[C@H]1C[C@H](c2ccccc2)CC(=O)N1O` (relative stereo) [1(i), trans-1-hydroxy-6-octadecyl-4-phenylpiperidin-2-one], for which the IC50 was 10000 nM. The value for `CCCCCCCC[C@H]1C[C@H](c2ccc3ccccc3c2)CC(=O)N1O` (relative stereo) [1(q), trans-1-hydroxy-4-(2-naphthyl)-6-octylpiperidin-2-one] was 100 nM.

Take `CCCCCCCC[C@@H]1C[C@H](c2cccc3ccccc23)CC(=O)N1O` (relative stereo) [1(n), cis-1-hydroxy-4-(1-naphthyl)-6-octylpiperidin-2-one]: 700 nM corresponded to half-maximal inhibition (IC50).
